Entries after “also recorded” stand apart in the source; their conditions may differ.
Columns and labels:
[1] = test system: normal human bladder epithelial cells; assay: 3H-thymidine incorporation into explanted normal human bladder epithelial cells; format: cell-based
Method: Cell proliferation was measured by ^3H-thymidine incorporation into explanted normal human bladder epithelial cells, as previously described (Keay et al., 2001; Keay et al., 2000; Keay et al., 2003a; Keay et al., 2003b; Keay et al., 1996). Briefly, purified native or synthetic APF (or the appropriate mock preparation) was diluted in serum-free MEM (containing only glutamine and antibiotics/antimycotics) and applied to the cells; cell controls received serum-free MEM alone. Cells were then incubated at 37° C. in a 5% CO2 atmosphere for 48 hours. The cells were then labeled with 1 μCi/well ^3H-thymidine for 4 hours, trypsinized, insoluble cell contents harvested and methanol-fixed onto glass fiber filter paper, and the amount of radioactivity incorporated determined. […]
The present example concerns exemplary comprehensive structure-activity relationship (SAR) studies on the peptide portion of antiproliferative factor (APF). […] Antiproliferative activity of each derivative was determined by inhibition of ^3H-thymidine incorporation in primary normal human bladder epithelial cells.
^3H-Thymidine Incorporation. […] The cell contents harvested and methanol-fixed onto glass fiber filter paper, and the amount of radioactivity incorporated determined. […]

[2] = test system: APF activity in normal bladder epithelial cells; assay: Inhibition of APF antiproliferative activity in APF-treated normal bladder cells (3H-thymidine incorporation); format: cell-based, human; details: pretreatment with derivative, then active synthetic APF (as-APF), IC/PBS and/or normal bladder cells
Method: (§1) IC/PBS cells were incubated with varying concentrations of GalGalNAc-TV(D-proline)AAVVVA (SEQ ID NO:11), wherein such glycosylated peptide is SEQ ID NO:30). Cell proliferation was determined by ^3H-thymidine incorporation; gene expression by quantitative RT-PCR; specific protein expression by Western blot analysis; tight junction formation by confocal immunofluorescence microscopy; and paracellular permeability by ^14C-mannitol and ^3H-inulin flux between confluent cells on Transwell plates. Significance of the difference in mean values between groups was determined by an analysis of variance for each assay.
as §1, with “a derivative shown to inhibit APF activity in normal bladder cells—GalGalNAc-TV-(D-proline)-AAVVVA” for “GalGalNAc-TV(D-proline)AAVVVA”, “NO: 11),” for “NO:11),”, “RT-PCR;” for “RT-PCR; specific protein expression by Western blot analysis;”, “^14H-inulin” for “^3H-inulin”
(§2) Cell proliferation was measured by ^3H-thymidine incorporation into explanted normal human bladder epithelial cells, as previously described (Keay et al., 2000; Keay et al., 2001; Keay et al., 2004; Keay et al., 2003; Saitoh et al., 2001). Significant inhibition of ^3H-thymidine incorporation was defined as a mean decrease in counts per minute of greater than 2 standard deviations from the mean of control cells for each plate.

[3] = test system: bladder epithelial cells from IC/PBS patients; assay: IC/PBS cell proliferation (3H-thymidine incorporation); format: cell-based, human; details: for effect on IC cell proliferation: 0.25 uM, 9, 16, 23 and 30 day treatment (Example 12)
Method: as §1
Study of the effect of APF proline on IC cell proliferation (as measured by thymidine incorporation) following 9, 16, 23, and 30 day treatment with 0.25 uM of the agent.
as §1, with “a derivative shown to inhibit APF activity in normal bladder cells—GalGalNAc-TV-(D-proline)-AAVVVA” for “GalGalNAc-TV(D-proline)AAVVVA”, “NO: 11),” for “NO:11),”, “RT-PCR;” for “RT-PCR; specific protein expression by Western blot analysis;”, “^14H-inulin” for “^3H-inulin”
IC/PBS cells produce APF and as a result have a profound decrease in cell proliferation. […] Cells were treated with 1 nM D-proline APF twice weekly, and thymidine incorporation was determined at 9, 16, 23 and 30 days.
as §2

[4] = test system: tight junction protein gene expression in IC/PBS cells; assay: qRT-PCR for tight junction gene expression; format: cell-based, human; details: 16 and 30 day treatment, relative to β-actin
Method: Total RNA was extracted from IC/PBS and normal control epithelial cell explants using the RNEasy Plus Mini Kit (Qiagen) according to the manufacturer's protocol. Quantitative real time RT-PCR for tight junction gene expression was performed using Quantitect Primers (Qiagen), SYBR Green RT-PCR kit reagents (Qiagen), and a Roche 480 Light-Cycler. Samples were tested in triplicate runs, and specific mRNA levels quantified and compared to mRNA levels for β-actin using LightCycler 480 real-time PCR analysis software (version 1.5).
(§3) For the permeability assay, the percentage of total counts in the basal medium was determined in four experiments (using different IC/PBS cell donors), and expressed as mean±standard deviation. Crossover point analysis was performed for qRT-PCR data, and expression of each gene was quantified relative to β-actin; this value was expressed as mean±standard error of the mean for duplicate runs performed on two separate occasions. ^3H-thymidine incorporation was determined in triplicate on two separate occasions, and the CPM expressed as mean±standard deviation.

[5] = test system: tight junction proteins in IC/PBS cells; assay: Immunofluorescence confocal microscopy of tight junction proteins; format: cell-based, human; details: IC/PBS cell explants treated for 9 days
Method: For immunofluorescence, cells were fixed using ethanol/acetone (1:1) for 15 minutes at room temperature, washed 3 times with PBS and incubated with fluorescein isothiocyanate (FITC) labeled mouse monoclonal anti-ZO-1 (5 μg/ml); or unlabeled mouse monoclonal anti-occludin (5 μg/ml) or anti-claudin 4 (3 μg/ml); or unlabeled rabbit polyclonal anti-claudin 1 (3 μg/ml), anti-claudin 8 (8 μg/ml), or anti-claudin 12 (5 μg/ml) antibodies (all from Zymed, South San Francisco, Calif.) diluted in PBS for 2 hours at 37 C. Cells incubated with unlabeled mouse monoclonal primary antibodies were then washed 3 times with PBS and further incubated with FITC-labeled secondary goat anti-mouse IgG antibody (Zymed) diluted in PBS, while cells incubated with unlabeled rabbit polyclonal primary antibodies were washed and further incubated for 2 hours at 37 C with goat anti-rabbit IgG (Zymed) diluted in PBS. Following an additional 5 washes with PBS, the cells were examined using an LSM510 confocal laser scanning microscope (Carl Zeiss, Oberkochen, Germany). Negative controls for the method included cells incubated without primary and secondary antibodies as well as cells incubated with secondary antibody alone.

IC/PBS cell monolayers = assay: Paracellular permeability assay (14C-mannitol and 3H-inulin flux, Transwell); format: cell-based, human; details: IC/PBS cells, 16 or 30 days treatment
Method: Flux assays were performed using 12-mm Transwell culture plates (Corning Incorporated, Corning, N.Y.), as previously described (Keay et al., 2000). Cells were plated at 4×10^5 cells/cm^2 on the insert and grown in DMEM-F12 medium containing 10% heat-inactivated FBS, 1% antibiotic solution, 1% L-glutamine, 0.25 units/ml insulin (all from Sigma, St. Louis, Mo.), and 5 ng/ml hEGF (R & D Systems, Minneapolis, Minn.) to establish tight monolayers. On day 2, the medium was changed to MEM (GIBCO/Invitrogen) containing 1% antibiotic/antimycotic solution and 1% L-glutamine (Sigma).
Two different membrane impermeable molecules, [^14C]-mannitol (molecular weight: 184 Daltons) and [3H]-inulin (molecular weight: 5,200 Daltons), served as paracellular tracers. At the beginning of the flux assay, both sides of the bathing wells of Transwell filters were replaced with fresh medium containing either 5 mM unlabeled mannitol or 0.5 mM unlabeled inulin. Each tracer was added at a final concentration of 3.6 nM for [^14C]-mannitol and 0.36 nM for [^3H]-inulin to the apical bathing wells. The basal bathing well contained the same medium as the apical compartment but without tracers. Flux assays were performed at 37° C.; basal medium was collected at 0.5-6 hrs after addition of [^14C]-mannitol or [^3H]-inulin, and the amount of radioactivity determined using a Beckman LS 5000 scintillation counter. Results were expressed as percentage of total counts for each tracer.
as §3

[6] = listed as GalGalNAc-TV(D-proline)AAVVVA
[7] = listed as GalGalNAc-TV-(D-proline)-AAVVVA

GalGalNAc-TV(D-proline)AAVVVA [D-proline APF]
antiproliferative activity ([1]; 3H-thymidine incorporation, normal bladder epithelial cells): did not have any intrinsic antiproliferative activity | antiproliferative activity normalized to as-APF ([1]; inactive = no significant activity at <25 μM (cut-off limit of the assay)): inactive | blocking of APF antiproliferative activity [2]: inhibited this activity in nanomolar concentrations in a dose-dependent manner | blocking of APF antiproliferative activity [2, 6]: blocked APF activity | blocking of APF antiproliferative activity [2, 7]: blocked APF antiproliferative activity; also recorded: blocks APF's inhibitory effects on cell proliferation | stimulation of IC/PBS cell proliferation ([3]; 1 nM twice weekly, thymidine incorporation at 9, 16, 23 and 30 days (Example 14)): stimulated IC/PBS cell proliferation by Day 16 | effect on IC cell proliferation [3]: significantly stimulated at both time points | effect on IC cell proliferation ([3]; listed as APF proline): Optimal stimulation of IC cell proliferation was observed up to the level of normal bladder cell proliferation | tight junction protein mRNA expression [4]: stimulation of tight junction protein expression; also recorded: stimulate mRNA expression for ZO-1, occludin, and specific claudin (1, 4, 8, and 12) | tight junction protein mRNA expression [4, 6]: significantly increase zonula occludens-1 and claudin 1, 4 and 8 expression | tight junction protein mRNA expression [4, 7]: significantly increased ZO-1, occludin, and claudin 1, 4, 8, and 12 expression | tight junction protein expression and localization [5]: also increased | paracellular permeability (14C-mannitol, 3H-inulin) (IC/PBS cell monolayers): normalized; also recorded: significantly decreased paracellular permeability of both tracer molecules | paracellular permeability (14C-mannitol, 3H-inulin) (IC/PBS cell monolayers; [6]): decrease permeability of IC/PBS cells | paracellular permeability (14C-mannitol, 3H-inulin) (IC/PBS cell monolayers; listed as GalGalNAc-TV-(D-Proline)-AAVVVA): significantly decrease permeability of IC/PBS cells | paracellular permeability (14C-mannitol, 3H-inulin) (IC/PBS cell monolayers; [7]): normalize IC/PBS cell paracellular permeability
